Values of other authors in patent US7749961B2, “Macrocyclic peptides active against the hepatitis C virus” (Boehringer Ingelheim International GmbH, priority 2004, dated 2010).

System: hepatitis C virus
Conditions: two day clinical trial

COc1ccc2c(O[C@@H]3C[C@H]4C(=O)N[C@]5(C(=O)O)C[C@H]5/C=C\CCCCC[C@H](NC(=O)OC5CCCC5)C(=O)N4C3)cc(-c3csc(NC(C)C)n3)nc2c1 [BILN 2061]
reduction of viral loads in patients infected with the hepatitis C virus: effective in rapidly reducing viral loads
